Test results as given in patent publication US20070128217A1 (priority 2003, published 2007).

How the values were obtained:
[1] = tested on: antibodies in sera from SARS patients (sera 1a, 1b, 2, 6, 37, 62, London, SARS-yellow, SARS-green); format: binding, human
[2] = tested on: control sera (pooled serum of ten healthy LUMC hospital workers; commercial negative donor pooled serum from the Dutch bloodbank); format: binding, human
[3] = tested on: rabbit serum obtained by immunizing a rabbit with the SARS-CoV strain Frankfurt 1; format: binding; set-up: Binding of a rabbit serum to linear peptides / Binding of a rabbit serum to looped peptides / Rabbit serum linear peptides / Rabbit serum looped peptides / Binding of a rabbit serum to linear peptides of protein N of SARS-CoV Urbani (Rabbit serum linear peptides) / Binding of a rabbit serum to looped/cyclic peptides of protein N of SARS-CoV Urbani (Rabbit serum looped peptides): unit not given here

VVFLLVTLAILTALR
0.1: Binding of serum SARS-yellow to linear peptides of protein E of SARS-CoV Urbani [1]
0.7: Binding of serum 1a to linear peptides of protein E of SARS-CoV Urbani [1] | Binding of serum 62 to looped/cyclic peptides of protein E of SARS-CoV Urbani [1]
0.4: Binding of serum 1b to linear peptides of protein E of SARS-CoV Urbani [1] | Binding of serum 2 to linear peptides of protein E of SARS-CoV Urbani [1] | Binding of serum 37 to looped/cyclic peptides of protein E of SARS-CoV Urbani [1] | Binding of Control serum LUMC to linear peptides [2]
0.5: Binding of serum 1a to looped/cyclic peptides of protein E of SARS-CoV Urbani [1] | Binding of serum 2 to looped/cyclic peptides of protein E of SARS-CoV Urbani [1] | Binding of serum 6 to looped/cyclic peptides of protein E of SARS-CoV Urbani [1] | Binding of serum London to linear peptides of protein E of SARS-CoV Urbani [1] | Binding of serum London to looped/cyclic peptides of protein E of SARS-CoV Urbani [1] | Binding of serum SARS-green to linear peptides of protein E of SARS-CoV Urbani [1] | Binding of serum SARS-yellow to looped/cyclic peptides of protein E of SARS-CoV Urbani [1] | Binding of a rabbit serum to linear peptides [3]
0.6: Binding of serum 6 to linear peptides of protein E of SARS-CoV Urbani [1] | Binding of serum 37 to linear peptides of protein E of SARS-CoV Urbani [1] | Binding of serum 62 to linear peptides of protein E of SARS-CoV Urbani [1] | Binding of Control Serum Blood-Bank to Looped peptides [2] | Binding of Control serum Blood-bank to linear peptides [2] | Binding of Control serum LUMC to looped peptides [2]
0.3: Binding of serum 1b to looped/cyclic peptides of protein E of SARS-CoV Urbani [1]
0.2: Binding of serum SARS-green to looped/cyclic peptides of protein E of SARS-CoV Urbani [1] | Binding of a rabbit serum to looped peptides [3]
